Data published in patent US20240026062A1, “WATER-BASED POLYURETHANE DISPERSIONS AND THEIR PREPARATION” (Dow Global Technologies LLC, priority 2020, published 2024).

Tests used:
[1] = animal testing; cited from earlier work
[2] = Solubility evaluation of diols containing an acid group in NMP or DPGDME; type: physicochemical; as to Solubility, DMBA in DPGDGME (75° C.): key: An entry of 'Yes' indicates completely soluble; an entry of 'No' means not fully soluble; as to Solubility, DMBA in NMP (25° C.): key: An entry of 'Yes' indicates completely soluble; an entry of 'No' means not fully soluble; as to Solubility, DMPA in DPDGME (95° C.): key: An entry of 'Yes' indicates completely soluble; an entry of 'No' means not fully soluble; as to Solubility, DMPA in NMP (25° C.): key: An entry of 'Yes' indicates completely soluble; an entry of 'No' means not fully soluble
Method: The solubility of certain diols containing an acid group (2,2-dimethylolpropionic acid (DMPA) and 2,2-dimethylolbutanoic acid (DMBA)) in dipropylene glycol dimethyl ether (DPGDME) and in N-methyl-2-pyrrolidone (NMP) are evaluated at different temperatures. The DPGDME used is PROGLYDE™ DMM (The Dow Chemical Company). The following concentrations with corresponding amounts of DMPA or DMBA and of solvent (DPGDME or NMP) are evaluated:
Using a 30 milliliter glass vial with a 24-mm black phenolic screw cap with poly seal liner from Fisher, the […] (DMBA or DMPA) is added at 5 wt. %, 10 wt. %, 15 wt. %, 20 wt. %, and 25 wt. % in the solvent (NMP or DPGDME) as specified in Table 1. Samples are heated on a high throughput heating/mixing station from 25° C. to 100° C. in 10° C. increments while mixing at 500 rpm with a magnetic stir bar. Samples are then removed an image is taken to record solubility.

CN1CCCC1=O [NMP, N-methyl-2-pyrrolidone]
Reproductive toxicity [1]: shows reproductive toxicity

CC(CO)(CO)C(=O)O [DMPA, 2,2-dimethylolpropionic acid]
Solubility, DMPA in DPDGME (95° C.) ([2]; 5 weight % in DPDGME, 95° C.): No
Solubility, DMPA in NMP (25° C.) ([2]; 5 weight % in NMP): Yes
Solubility in DPGDGME ([2]; 5 weight %, 95° C.): not fully soluble
Solubility, DMPA in DPDGME (95° C.) ([2]; 10 weight % in DPDGME, 95° C.): No
Solubility, DMPA in NMP (25° C.) ([2]; 10 weight % in NMP): Yes
Solubility, DMPA in DPDGME (95° C.) ([2]; 15 weight % in DPDGME, 95° C.): No
Solubility, DMPA in NMP (25° C.) ([2]; 15 weight % in NMP): Yes
Solubility, DMPA in DPDGME (95° C.) ([2]; 20 weight % in DPDGME, 95° C.): No
Solubility, DMPA in NMP (25° C.) ([2]; 20 weight % in NMP): Yes
Solubility, DMPA in DPDGME (95° C.) ([2]; 25 weight % in DPDGME, 95° C.): No
Solubility, DMPA in NMP (25° C.) ([2]; 25 weight % in NMP): Yes
Solubility in DPGDME (overall) ([2]; in DPGDME): poor
Solubility in NMP ([2]; room temperature (25° C.), all concentrations up to 25 weight %, upon mixing in NMP): completely soluble

CCC(CO)(CO)C(=O)O [DMBA, 2,2-dimethylolbutanoic acid]
Solubility, DMBA in DPGDGME (75° C.) ([2]; 5 weight % in DPGDGME, 75° C.): Yes
Solubility, DMBA in NMP (25° C.) ([2]; 5 weight % in NMP): Yes
Solubility, DMBA in DPGDGME (75° C.) ([2]; 10 weight % in DPGDGME, 75° C.): Yes
Solubility, DMBA in NMP (25° C.) ([2]; 10 weight % in NMP): Yes
Solubility, DMBA in DPGDGME (75° C.) ([2]; 15 weight % in DPGDGME, 75° C.): Yes
Solubility, DMBA in NMP (25° C.) ([2]; 15 weight % in NMP): Yes
Solubility, DMBA in DPGDGME (75° C.) ([2]; 20 weight % in DPGDGME, 75° C.): Yes
Solubility, DMBA in NMP (25° C.) ([2]; 20 weight % in NMP): Yes
Solubility, DMBA in DPGDGME (75° C.) ([2]; 25 weight % in DPGDGME, 75° C.): Yes
Solubility, DMBA in NMP (25° C.) ([2]; 25 weight % in NMP): Yes
Solubility in DPGDME ([2]; 75° C.): fully dissolve
Solubility in both solvents tested (NMP and DPGDME) ([2]; all concentrations up to 25 weight %, varying temperatures): soluble
